The source made the active and inactive calls.

Sequence of Cytochrome P450 2D6 (P10635 whole entry): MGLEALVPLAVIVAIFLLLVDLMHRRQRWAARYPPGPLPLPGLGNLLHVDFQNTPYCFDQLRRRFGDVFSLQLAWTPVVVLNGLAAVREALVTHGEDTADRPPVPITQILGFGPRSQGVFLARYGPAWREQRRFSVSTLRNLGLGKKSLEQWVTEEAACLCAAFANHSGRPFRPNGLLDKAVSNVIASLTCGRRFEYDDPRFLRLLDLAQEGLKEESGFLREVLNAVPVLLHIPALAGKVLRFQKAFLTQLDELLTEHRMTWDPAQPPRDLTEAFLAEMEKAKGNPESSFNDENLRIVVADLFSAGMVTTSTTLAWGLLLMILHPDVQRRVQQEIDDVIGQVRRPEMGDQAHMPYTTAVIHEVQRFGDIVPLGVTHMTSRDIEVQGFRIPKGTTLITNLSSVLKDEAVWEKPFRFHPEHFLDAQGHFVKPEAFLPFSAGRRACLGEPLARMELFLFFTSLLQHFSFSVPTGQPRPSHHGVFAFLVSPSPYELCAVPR

One assay deals with Streptococcus sp. 'group A'. Put plainly: growth inhibition of control SK(-) GAS strain, dose response, counter-screen for streptokinase expression inhibitor project, luminescence, kanamycin, BacTiterGlo, confirmation (AID 1900).
Conditions: not given
It is filed as functional, organism-based.
`O=C(/C=C/c1ccccc1)NC(NC(=S)Nc1ccc(Cl)cc1)C(Cl)(Cl)Cl` (centres undefined): the concentration giving a half-maximal response (EC50) was 5.79 µM (active).

Tested on in a further assay: not listed separately
Nature of the assay: control 3'UTR Renilla luciferase suppression, dose response, counter-screen for Shn3 inhibitor project, cell-based, Clone20-Shn3RL, cherry-picked (AID 624133). It is filed as functional.
Conditions: not given
Consider `O=C(Nc1ccc(N2CCOCC2)c(Cl)c1)c1ccc([N+](=O)[O-])o1`, for which the AC50 is 14.7 µM (active).
The same measure, in the same setting: in the case of `CC(C)C1C(=O)N(Cc2cn(CCC3OCCO3)nn2)CCS(=O)(=O)N1Cc1ccc(-c2ccc(Cl)cc2)cc1` (centres undefined) it was 2.83 µM (active); in that of `CN(C)S(=O)(=O)c1cccc(NC(=O)c2cccc(S(=O)(=O)N3CCc4ccccc43)c2)c1`, 11.7 µM (active).
Take `O=C(/C=C/c1ccccc1)NC(NC(=S)Nc1ccc(Cl)cc1)C(Cl)(Cl)Cl` (centres undefined): the AC50 was 30.4 µM (active).

In another assay the test system is SN12K1. Nature of the assay: cells. It is filed as functional. As to conditions: Homo sapiens.
In the case of `CCOC(=O)C[n+]1ccc2c([nH]c3cc(OC)ccc32)c1C`, the GI50 is > 80.2 µM (inactive).
`O=C(O)C1CCC(=O)N1S(=O)(=O)c1ccccc1` (centres undefined): the GI50 was > 100 µM (inactive).
On the same count and under the same terms, the same measure for `C=CC1(NC(=O)c2ccccc2)CCC(C(C)(C)C)CC1` (centres undefined): 32.4 µM (inactive); for `O=[N+]([O-])c1cnccc1-n1nnc2ccccc21`: 27.7 µM (inactive).
Turning to `Cc1ccc(OP2(=O)Oc3ccc4ccccc4c3CN2c2ccc(Cl)cc2)cc1C` (centres undefined), the GI50 was > 100 µM (inactive).
On the same count and under the same terms, the same measure for `S=C(NCCCCCCNC(=S)Nc1c2ccccc2nc2ccccc12)Nc1c2ccccc2nc2ccccc12`: 6.22 µM (inactive); for `C1CN1c1nc(N2CC2)nc(N2CC2)n1`: 5.21 µM (inactive); for `CSCSCC(N)CO.Cc1[nH]c(=O)[nH]c(=O)c1/C=C/C(=O)O`: > 625 µM (inactive).
In the case of `c1ccc2cc3c(cc2c1)OP1(Oc2cccc4cccnc24)(O3)Oc2cc3ccccc3cc2O1`, the GI50 is 3.31 µM (inactive).
The same measure, in the same setting: the same measure for `O=NN(CCCl)C(=O)NCCCl` [CARMUSTINE]: 58.3 µM (inactive).

Tested on in a further assay: not listed separately
Nature of the assay: Shn3 3'UTR reporter inhibitors, dose response, cell-based, Clone20 osteoblasts, firefly luciferase, cherry-picked (AID 624132).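 Also: firefly luciferase luminescence from reporter carrying the Shn3 3'UTR in osteoblasts.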 It is filed as functional.
Conditions: not given
Regarding `O=C(Nc1ccc(N2CCOCC2)c(Cl)c1)c1ccc([N+](=O)[O-])o1`, the AC50 is 6.23 µM (active).
With `CC(C)C1C(=O)N(Cc2cn(CCC3OCCO3)nn2)CCS(=O)(=O)N1Cc1ccc(-c2ccc(Cl)cc2)cc1` (centres undefined), the AC50 is 2.13 µM (active).
With `CN(C)S(=O)(=O)c1cccc(NC(=O)c2cccc(S(=O)(=O)N3CCc4ccccc43)c2)c1`, the AC50 is 3.92 µM (active).
Consider `O=C(/C=C/c1ccccc1)NC(NC(=S)Nc1ccc(Cl)cc1)C(Cl)(Cl)Cl` (centres undefined), for which the half-maximal activity concentration (AC50) was 5.13 µM (active).

Tested on in another assay: not listed separately
Nature of the assay: inhibitors of intracellular T. cruzi replication, confirmation, NIH3T3 host cells, beta-gal luminescence (AID 2044).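 Also: intracellular parasites grown in NIH/3T3 mouse fibroblasts as host cells; luminescent beta-galactosidase reporter signal from transgenic T. cruzi replicating inside host cells; inhibitors lower the luminescence signal.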
Conditions: not given
It is filed as functional, cell-based.
Turning to `O=C(/C=C/c1ccccc1)NC(NC(=S)Nc1ccc(Cl)cc1)C(Cl)(Cl)Cl` (centres undefined), the EC50 is 1.08 µM (active).

In a further assay the target is T1, Polyadenylate-binding protein 1 (Homo sapiens, UniProt P11940). Put plainly: PABP1 MLLE–PAM2 binding inhibitor potency, dose response, biochemical, fluorescence polarization, FITC-PAM2 peptide (AID 602259). It is filed as functional. To be noted: read-out: IC50_Mean.
T1 sequence (P11940 whole entry): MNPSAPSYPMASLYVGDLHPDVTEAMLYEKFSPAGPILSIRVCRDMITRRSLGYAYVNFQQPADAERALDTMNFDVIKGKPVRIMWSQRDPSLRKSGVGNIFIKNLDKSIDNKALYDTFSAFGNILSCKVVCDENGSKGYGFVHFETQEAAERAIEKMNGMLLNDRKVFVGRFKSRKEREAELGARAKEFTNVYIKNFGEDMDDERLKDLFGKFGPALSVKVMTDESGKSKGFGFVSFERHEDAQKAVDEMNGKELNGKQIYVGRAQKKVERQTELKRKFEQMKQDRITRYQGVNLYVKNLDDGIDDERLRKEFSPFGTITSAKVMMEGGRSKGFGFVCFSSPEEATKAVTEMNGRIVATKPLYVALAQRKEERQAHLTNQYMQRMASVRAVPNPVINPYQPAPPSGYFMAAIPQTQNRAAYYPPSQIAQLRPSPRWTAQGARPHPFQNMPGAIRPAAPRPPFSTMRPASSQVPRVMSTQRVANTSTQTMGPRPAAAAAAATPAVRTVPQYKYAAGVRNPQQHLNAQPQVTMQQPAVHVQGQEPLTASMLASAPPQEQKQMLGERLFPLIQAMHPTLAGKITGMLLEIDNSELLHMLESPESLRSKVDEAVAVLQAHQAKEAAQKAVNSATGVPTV
On to `CCC(OC(=O)CC1Sc2ccccc2NC1=O)C(=O)NCC1CCCO1` (centres undefined), for which the IC50 is > 66 µM (inactive).
The same measure, in the same setting: the same measure for `Cc1c(Cl)cccc1N=C(S)NCCc1ccc(S(N)(=O)=O)cc1`: > 66 µM (inactive).
Same read-out and setting: the same measure for `O=C(NC(=S)Nc1ncccn1)c1ccccc1Cl`: > 66 µM (inactive); for `CCN(c1c(C)n(C)n(-c2ccccc2)c1=O)S(C)(=O)=O`: > 66 µM (inactive); for `CCN1C(=O)[C@H]2[C@H]3CN=C(SCC(=O)c4ccccc4)N3[C@@](C)(C(=O)OC)[C@H]2C1=O`: > 66 µM (inactive).
Still for that read-out and setting: in the case of `CC(=O)C1=C(O)C(=O)N(C)C1c1ccccc1[N+](=O)[O-]` (centres undefined) it was > 66 µM (inactive).

A further assay addresses Cytochrome P450 2D6 (Homo sapiens, UniProt P10635).
Test: not given
Conditions: not given
Consider `O=C(/C=C/c1ccccc1)NC(NC(=S)Nc1ccc(Cl)cc1)C(Cl)(Cl)Cl` (centres undefined), for which the AC50 is 7.94 µM (inconclusive).

For a further assay, the target named is T1, Polyadenylate-binding protein 1. Put plainly: PABP1 MLLE–PAM2 interaction inhibitors, dose response, miRNA deadenylation inhibitor project, biochemical, fluorescence polarization, Cy5-PAM2 peptide, secondary (AID 602260). As to conditions: read-out: IC50_Mean. It is filed as functional.
Turning to `CCC(OC(=O)CC1Sc2ccccc2NC1=O)C(=O)NCC1CCCO1` (centres undefined), the IC50 is > 66 µM (inactive).
As for `Cc1c(Cl)cccc1N=C(S)NCCc1ccc(S(N)(=O)=O)cc1`, the IC50 was > 66 µM (inactive).
The same measure, in the same setting: the same measure for `O=C(NC(=S)Nc1ncccn1)c1ccccc1Cl`: > 66 µM (inactive).
For the molecule `CCN(c1c(C)n(C)n(-c2ccccc2)c1=O)S(C)(=O)=O`, the IC50 is > 66 µM (inactive).
Same read-out and setting: the same measure for `CCN1C(=O)[C@H]2[C@H]3CN=C(SCC(=O)c4ccccc4)N3[C@@](C)(C(=O)OC)[C@H]2C1=O`: > 66 µM (inactive); for `CC(=O)C1=C(O)C(=O)N(C)C1c1ccccc1[N+](=O)[O-]` (centres undefined): > 66 µM (inactive).

The next assay relates to Streptococcus. Put plainly: Group A Streptococcus viability loss, dose response, counter-screen for streptokinase expression inhibitor project, luminescence, BacTiterGlo (AID 1915).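 Also: potency for reduction of bacterial viability or growth.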
Conditions: not given
It is filed as functional, organism-based.
Consider `O=C(/C=C/c1ccccc1)NC(NC(=S)Nc1ccc(Cl)cc1)C(Cl)(Cl)Cl` (centres undefined), for which the EC50 is on record as > 150 µM (not active).

Tested on in the next assay: not listed separately
Put plainly: cytotoxicity toward NIH3T3 fibroblasts, dose response, counter-screen, cell-based, ATP luminescence, mouse fibroblasts (AID 2010).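 Also: cells exposed to compound for about 90 hours before reading.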 It is filed as functional.
Conditions: not given
Regarding `O=C(/C=C/c1ccccc1)NC(NC(=S)Nc1ccc(Cl)cc1)C(Cl)(Cl)Cl` (centres undefined), the concentration giving a half-maximal response (EC50) is given as > 60 µM (not active).

Tested on in a further assay: not listed separately
Nature of the assay: HepG2 cell cytotoxicity, dose response, cytotoxicity control for Shn3 inhibitor project, CellTiter-Glo, cherry-picked (AID 624134). It is filed as functional, cell-based.
Conditions: not given
With `O=C(Nc1ccc(N2CCOCC2)c(Cl)c1)c1ccc([N+](=O)[O-])o1`, the AC50 is 24.9 µM (active).
As to `CC(C)C1C(=O)N(Cc2cn(CCC3OCCO3)nn2)CCS(=O)(=O)N1Cc1ccc(-c2ccc(Cl)cc2)cc1` (centres undefined), the AC50 is > 70 µM (inactive).
The same measure, in the same setting: the same measure for `CN(C)S(=O)(=O)c1cccc(NC(=O)c2cccc(S(=O)(=O)N3CCc4ccccc43)c2)c1`: 60.9 µM (active); for `O=C(/C=C/c1ccccc1)NC(NC(=S)Nc1ccc(Cl)cc1)C(Cl)(Cl)Cl` (centres undefined): 26.7 µM (active).

A further assay relates to P388. Put plainly: cells. It is filed as functional. As to conditions: Mus musculus.
For the molecule `CCOC(=O)C[n+]1ccc2c([nH]c3cc(OC)ccc32)c1C`, the GI50 is 38.9 µM (inactive).
Same read-out and setting: in the case of `O=C(O)C1CCC(=O)N1S(=O)(=O)c1ccccc1` (centres undefined) it was > 100 µM (inactive); in that of `C=CC1(NC(=O)c2ccccc2)CCC(C(C)(C)C)CC1` (centres undefined), 12.2 µM (inactive); in that of `O=[N+]([O-])c1cnccc1-n1nnc2ccccc21`, 7.96 µM (inactive).
Regarding `Cc1ccc(OP2(=O)Oc3ccc4ccccc4c3CN2c2ccc(Cl)cc2)cc1C` (centres undefined), the GI50 is > 100 µM (inactive).
For the molecule `S=C(NCCCCCCNC(=S)Nc1c2ccccc2nc2ccccc12)Nc1c2ccccc2nc2ccccc12`, the GI50 is 44.5 µM (inactive).
Consider `C1CN1c1nc(N2CC2)nc(N2CC2)n1`, for which the GI50 is 0.465 µM (active).
The same measure, in the same setting: the same measure for `CSCSCC(N)CO.Cc1[nH]c(=O)[nH]c(=O)c1/C=C/C(=O)O`: > 625 µM (inactive); for `c1ccc2cc3c(cc2c1)OP1(Oc2cccc4cccnc24)(O3)Oc2cc3ccccc3cc2O1`: 1.2 µM (inactive).
The same measure, in the same setting: the same measure for `O=NN(CCCl)C(=O)NCCCl` [CARMUSTINE]: 6.62 µM (inactive).

The target of the next assay is T2, Streptokinase A (Streptococcus pyogenes serotype M1, UniProt P10520).
T2 sequence (P10520 whole entry): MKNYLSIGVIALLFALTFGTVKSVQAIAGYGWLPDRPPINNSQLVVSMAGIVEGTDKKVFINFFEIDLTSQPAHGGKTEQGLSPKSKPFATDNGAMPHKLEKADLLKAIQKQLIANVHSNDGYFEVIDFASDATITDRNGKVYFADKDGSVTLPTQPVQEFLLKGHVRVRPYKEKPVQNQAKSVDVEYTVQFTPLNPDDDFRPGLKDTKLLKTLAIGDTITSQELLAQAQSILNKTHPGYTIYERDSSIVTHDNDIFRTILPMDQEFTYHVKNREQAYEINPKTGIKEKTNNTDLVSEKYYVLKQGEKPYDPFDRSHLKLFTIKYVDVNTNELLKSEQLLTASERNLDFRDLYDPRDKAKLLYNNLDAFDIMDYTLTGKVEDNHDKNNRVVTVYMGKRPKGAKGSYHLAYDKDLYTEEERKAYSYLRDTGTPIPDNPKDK
Put plainly: S. pyogenes streptokinase expression inhibitors, potency, dose response, plasminogen activation absorbance, OD405 (AID 1914).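 Also: secreted streptokinase activity via plasminogen activation per viability signal from cell pellet.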 It is filed as functional, Streptococcus pyogenes M1 GAS.
Conditions: not given
Consider `O=C(/C=C/c1ccccc1)NC(NC(=S)Nc1ccc(Cl)cc1)C(Cl)(Cl)Cl` (centres undefined), for which the EC50 is recorded as > 150 µM (not active).

Another assay has as its system P388/ADR. Nature of the assay: cells. It is filed as functional. To be noted: Mus musculus.
On to `CCOC(=O)C[n+]1ccc2c([nH]c3cc(OC)ccc32)c1C`, for which the GI50 was 35.1 µM (inactive).
For `O=C(O)C1CCC(=O)N1S(=O)(=O)c1ccccc1` (centres undefined), the GI50 is > 100 µM (inactive).
On the same count and under the same terms, the same measure for `C=CC1(NC(=O)c2ccccc2)CCC(C(C)(C)C)CC1` (centres undefined): 22.2 µM (inactive); for `Cc1ccc(OP2(=O)Oc3ccc4ccccc4c3CN2c2ccc(Cl)cc2)cc1C` (centres undefined): > 100 µM (inactive).
Turning to `S=C(NCCCCCCNC(=S)Nc1c2ccccc2nc2ccccc12)Nc1c2ccccc2nc2ccccc12`, the GI50 is 65 µM (inactive).
Same read-out and setting: in the case of `C1CN1c1nc(N2CC2)nc(N2CC2)n1` it was 0.466 µM (active).
Same read-out and setting: in the case of `CSCSCC(N)CO.Cc1[nH]c(=O)[nH]c(=O)c1/C=C/C(=O)O` it was > 625 µM (inactive); in that of `c1ccc2cc3c(cc2c1)OP1(Oc2cccc4cccnc24)(O3)Oc2cc3ccccc3cc2O1`, 1.42 µM (inactive).
With `O=NN(CCCl)C(=O)NCCCl` [CARMUSTINE], the GI50 is 7.29 µM (inactive).

The record behind these values is ChEMBL document CHEMBL1201862, “PubChem BioAssay data set” (2004).
